Earlier results in patent US12357667B2, “Nutraceutical formulations to prevent, treat, and inhibit excess cytokines, SARS-CoV-2 spike proteins, and mRNA vaccine spike proteins” (priority 2021, dated 2025).
Counter-ions that a name gives are not always drawn.

Legend:
SARS-CoV-2 [1] = system: SARS-CoV-2
SARS-CoV-2 [2] = conditions: structure-based molecular docking
SARS-CoV-2 [3] = conditions: lung epithelial cells
[4] = 6 mg/day for 4 weeks, active young men
[5] = hyperlipidemic rats
SARS-CoV-2 [6] = system: SARS-CoV-2; remark: listed apart in the source
SARS-CoV-2 [7] = conditions: patients previously taking CBD relative to matched pairs or the general population
[8] = system: mouse hepatitis virus (MHV); conditions: A549-MHVR cells, non-toxic conditions; read-out: EC50, suppression of MHV replication
CB1 = CB1 (Homo sapiens, UniProt P21554)
Chain of CB1 (P21554 whole entry, species assumed): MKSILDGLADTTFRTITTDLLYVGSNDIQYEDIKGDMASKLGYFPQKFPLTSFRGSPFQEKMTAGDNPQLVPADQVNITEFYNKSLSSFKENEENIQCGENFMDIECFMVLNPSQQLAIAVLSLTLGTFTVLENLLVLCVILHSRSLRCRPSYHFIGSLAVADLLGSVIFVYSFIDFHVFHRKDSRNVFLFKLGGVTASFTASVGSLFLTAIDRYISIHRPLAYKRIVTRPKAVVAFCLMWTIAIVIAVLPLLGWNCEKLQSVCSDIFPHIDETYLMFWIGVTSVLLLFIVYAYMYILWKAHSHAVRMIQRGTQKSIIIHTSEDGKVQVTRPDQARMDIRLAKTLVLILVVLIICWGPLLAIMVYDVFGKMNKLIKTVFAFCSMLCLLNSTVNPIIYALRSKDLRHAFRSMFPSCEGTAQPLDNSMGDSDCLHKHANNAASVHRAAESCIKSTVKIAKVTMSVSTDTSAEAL

[9] = molecular target: cannabinoid G-protein coupled receptor CB2 (Homo sapiens, UniProt P34972)
Chain of cannabinoid G-protein coupled receptor CB2 (P34972 whole entry): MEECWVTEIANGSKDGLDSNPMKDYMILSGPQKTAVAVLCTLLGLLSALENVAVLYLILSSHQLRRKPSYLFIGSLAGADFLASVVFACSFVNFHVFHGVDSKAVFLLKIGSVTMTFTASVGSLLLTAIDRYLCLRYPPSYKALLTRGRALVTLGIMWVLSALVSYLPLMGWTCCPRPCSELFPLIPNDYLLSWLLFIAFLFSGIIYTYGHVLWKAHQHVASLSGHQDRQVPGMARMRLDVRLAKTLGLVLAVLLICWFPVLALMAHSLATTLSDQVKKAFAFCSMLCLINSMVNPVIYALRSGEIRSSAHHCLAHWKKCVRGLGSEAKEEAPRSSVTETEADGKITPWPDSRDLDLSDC

influenza = conditions: 6-month preventive administration
[10] = system: human influenza viruses (H5N1, Vietnam/VN1203 strain)
RBD and ACE2 = RBD and ACE2 (Severe acute respiratory syndrome coronavirus 2, UniProt P0DTC2)
pseudotyped SARS-CoV-2 = conditions: VeroE6/TMPRSS2 cells
[11] = molecular target: T1, 3-chymotrypsin-like protease (3CLpro) (Severe acute respiratory syndrome coronavirus 2, UniProt P0DTD1)
T1 construct: 3-chymotrypsin-like protease (3CLpro)

[12] = molecular target: T2, papain-like protease (PLpro) (Severe acute respiratory syndrome coronavirus 2, UniProt P0DTD1)
T2 construct: papain-like protease (PLpro)

SARS-CoV-2 viral S-spike = SARS-CoV-2 viral S-spike (Severe acute respiratory syndrome coronavirus 2, UniProt P0DTC2); conditions: supercomputer modeling; out of 20 top performers
[13] = not given; remark: listed apart in the source
[14] = system: multiple strains of SARS-CoV-2, including Delta and Omicron
[15] = system: respiratory syncytial virus; conditions: respiratory syncytial virus-infected mice
blood coagulation = conditions: in vitro coagulation assays
[16] = system: pseudovirus expressing the SARS-CoV-2 spike protein
Furin = Furin (Homo sapiens, UniProt P09958)
Chain of Furin (P09958 108-794, species assumed): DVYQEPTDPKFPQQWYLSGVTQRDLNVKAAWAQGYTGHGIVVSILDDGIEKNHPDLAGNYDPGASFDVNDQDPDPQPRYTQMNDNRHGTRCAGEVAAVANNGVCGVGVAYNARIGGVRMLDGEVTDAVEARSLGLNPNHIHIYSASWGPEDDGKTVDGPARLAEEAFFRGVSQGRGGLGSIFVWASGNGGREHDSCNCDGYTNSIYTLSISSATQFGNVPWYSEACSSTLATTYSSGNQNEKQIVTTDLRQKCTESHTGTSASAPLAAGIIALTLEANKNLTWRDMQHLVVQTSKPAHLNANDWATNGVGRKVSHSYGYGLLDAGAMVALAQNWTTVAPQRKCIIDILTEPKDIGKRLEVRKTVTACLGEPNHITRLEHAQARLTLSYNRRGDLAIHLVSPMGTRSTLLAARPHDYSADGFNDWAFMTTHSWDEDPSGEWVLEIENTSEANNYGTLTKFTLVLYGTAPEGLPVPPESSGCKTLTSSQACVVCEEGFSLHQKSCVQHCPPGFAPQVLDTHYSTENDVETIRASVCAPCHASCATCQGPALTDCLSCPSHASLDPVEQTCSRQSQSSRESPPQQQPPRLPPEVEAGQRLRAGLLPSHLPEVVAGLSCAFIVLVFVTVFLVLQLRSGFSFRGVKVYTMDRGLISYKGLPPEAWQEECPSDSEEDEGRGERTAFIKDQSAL

main proteases (6Y2E) = molecular target: T3, main proteases (6Y2E) (Severe acute respiratory syndrome coronavirus 2, UniProt P0DTD1); conditions: 6Y2E active sites
T3 construct: main proteases (6LU7 and 6Y2E)

[17] = system: glutamate-cysteine ligase; parameters: dose or concentration left out as unconfirmed; conditions: zinc, ARPE-19 cells
SARS-CoV-2 [18] = system: SARS-CoV-2; remark: listed apart in the source

C=C(CC(=O)OCCCCCCCC)C(=O)O [4-octyl-itaconate]
replication of SARS-CoV-2 in vitro (SARS-CoV-2 [1]): inhibited replication

CN1c2c(nc(N)[nH]c2=O)NCC1CNc1ccc(C(=O)N[C@@H](CCC(=O)O)C(=O)O)cc1 (stereo partly shown) [5-methyl tetrahydrofolic acid]
binding affinities against the SARS-CoV-2 (SARS-CoV-2 [2]): strong and stable binding affinities

C=C(C)[C@@H]1CCC(CO)=C[C@H]1c1c(O)cc(CCCCC)cc1O [7-0H-CBD, 7-OH-CBD]
block of SARS-CoV-2 replication (SARS-CoV-2 [3]): potently block

CC1=C(/C=C/C(C)=C/C=C/C(C)=C/C=C/C=C(C)/C=C/C=C(C)/C=C/C2=C(C)C(=O)[C@@H](O)CC2(C)C)C(C)(C)C[C@H](O)C1=O [Astaxanthin]
Glutathione higher compared with placebo [4]: ~7%
oxidative stress markers or substrate utilization during exercise [4]: did not affect
Glutathione, whole blood ([4]; fasting blood sample): 1,233±133 μM
coagulation, fibrinolytic activity and platelet aggregation [5]: inhibit coagulation, increase fibrinolytic activity and reduce platelet aggregation

C=C(C)[C@@H]1CCC(C)=C[C@H]1c1c(O)cc(CCCCC)cc1O [CBD, Cannabidiol]
inhibition of SARS-CoV-2 replication (SARS-CoV-2 [6]; Vero E6 monkey kidney epithelial cells): inhibited SARS-CoV-2 replication
toxicity (SARS-CoV-2 [6]; at the effective doses): No toxicity
SARS-CoV-2 infection incidence (SARS-CoV-2 [7]): significantly lower
EC50 [8]: ~5 µM
IL-1β, IL-6, TNF and IL-18 (Caco-2 cells; ELISA, CBD 10-9-10-7 M): parallel inhibition
transepithelial electrical resistance (TEER) (Caco-2 cells; following CBD treatment): restoration
proinflammatory markers triggered by Spike Protein (TLR-4, ACE-2, RhoA-GTPase, NLRP3, Caspase-1) (Caco-2 cells; immunoblot, CBD 10-9-10-7 M): reduce all the analyzed proinflammatory markers
block of SARS-CoV-2 replication (SARS-CoV-2 [3]): potently block

C=C(C)[C@@H]1CCC(C)=C[C@H]1c1c(O)cc(CCC)cc1O [CBDV, cannabidivarin, reference compound]
levels of interleukin-6 (IL-6) and lactate dehydrogenase (LDH) (astrocytes): attenuated levels

CCCCCc1cc(O)c(C/C=C(\C)CCC=C(C)C)c(O)c1 [CBG, Cannabigerol]
levels of DNA damage proteins (astrocytes): decreased levels
levels of interleukin-6 (IL-6) and lactate dehydrogenase (LDH) (astrocytes): attenuated levels

CCCCCc1cc(O)c2c(c1)OC(C)(C)c1ccc(C)cc1-2 [Cannabinol]
affinity for CB1 (CB1): minimal affinity
binding to CB2 [9]: preferentially binds

CC(=O)N[C@@H](CS)C(=O)O [N-acetylcysteine, reference compound]
spike-mediated cell-cell fusion (SARS-CoV-2 spike): inhibited
incidence of clinically apparent influenza and influenza-like episodes (influenza): significantly reduced
inhibition of H5N1 replication [10]: dose dependent manner
production of pro-inflammatory cytokines (IL-8, CXCL10, CCL5 and IL-6) [10]: reduced the production
in vitro binding of RBD and ACE2 (RBD and ACE2): inhibited
pseudotyped viral infection (pseudotyped SARS-CoV-2): inhibited

O=c1c(O)c(-c2ccc(O)c(O)c2)oc2cc(O)cc(O)c12 [Quercetin]
docking binding energy [11]: -6.25 kcal/mol
solubility: low solubility
docking binding energy [12]: -4.62 kcal/mol
rank for inhibition of SARS-CoV-2 viral S-spike binding to cells (SARS-CoV-2 viral S-spike): fifth
oral absorption / systemic bioavailability [13]: reduced oral absorption

C[S+]([O-])CCCCN=C=S (stereo not shown) [SFN, Sulforaphane]
toxicity in cell culture [14]: limited toxicity
antiviral activity ([14]; multiple strains of SARS-CoV-2, including Delta and Omicron): potent antiviral activity
lung viral replication and virus-induced inflammation [15]: significantly limited
antiviral activity (HCoV-OC43): potent antiviral activity

CC1=CC(=O)C(C(C)C)=CC1=O [Thymoquinone]
anticoagulant activity (blood coagulation): possesses anticoagulant activity

C=C(C)[C@@H]1CCC(C)=C[C@H]1c1c(O)cc(CCCCC)c(C(=O)O)c1O [cannabidiolic acid]
entry of live SARS-CoV-2 into cells (live SARS-CoV-2): prevented entry
infection of human epithelial cells by pseudovirus [16]: prevented infection

CCCCCc1cc(O)c(C/C=C(\C)CCC=C(C)C)c(O)c1C(=O)O [cannabigerolic acid]
entry of live SARS-CoV-2 into cells (live SARS-CoV-2): prevented entry
infection of human epithelial cells by pseudovirus [16]: prevented infection

COc1cc(/C=C/C(=O)CC(=O)/C=C/c2ccc(O)c(OC)c2)ccc1O [curcumin, diferuloylmethane]
oral absorption / systemic bioavailability [13]: minimal absorption

COC(=O)/C=C/C(=O)OC [dimethyl fumarate]
replication of SARS-CoV-2 in vitro (SARS-CoV-2 [1]): inhibited replication

Nc1nc2ncc(CNc3ccc(C(=O)N[C@@H](CCC(=O)O)C(=O)O)cc3)nc2c(=O)[nH]1 [folic acid]
furin inhibition (Furin): inhibit furin
binding affinities against the SARS-CoV-2 (SARS-CoV-2 [2]): strong and stable binding affinities

N[C@@H](CCC(=O)N[C@@H](CS)C(=O)NCC(=O)O)C(=O)O [glutathione, γ-glutamyl cysteinyl glycine]
spike-mediated cell-cell fusion (SARS-CoV-2 spike): inhibited
oral absorption / systemic bioavailability [13]: poor
in vitro binding of RBD and ACE2 (RBD and ACE2): inhibited
pseudotyped viral infection (pseudotyped SARS-CoV-2): inhibited

CC1(C)CC[C@]2(C(=O)O)CC[C@]3(C)C(=CC[C@@H]4[C@@]5(C)CC[C@H](O)[C@@](C)(CO)[C@@H]5CC[C@]43C)[C@@H]2C1 [hederagenin]
docking binding score with 6Y2E (main proteases (6Y2E)): less than saquinavir

Cc1c(-c2cnccn2)ssc1=S [oltipraz]
ACE2 levels (ACE2): reduces ACE2 levels

Nc1nc2c(c(=O)[nH]1)NC(CNc1ccc(C(=O)N[C@@H](CCC(=O)O)C(=O)O)cc1)CN2 (stereo partly shown) [tetrahydrofolic acid]
binding affinities against the SARS-CoV-2 (SARS-CoV-2 [2]): strong and stable binding affinities

[Zn] [zinc]
mRNA levels of glutamate-cysteine ligase [17]: upregulates

bromelain
toxicity (PGE-2): very low toxicity
effect on PGE-2 inhibition (PGE-2; compared with prednisone and aspirin): exceeds that of prednisone and aspirin
infection of VeroE6 cells by SARS-CoV-2 (SARS-CoV-2 [18]): inhibits infection
